According to patent US5420335A, “Parenteral nutrients based on watersoluble glycerol bisacetoacetates” (priority 1993, dated 1995):
Where “and” joins values, the source holds several entries; their conditions need not be identical. Identical values can stand only once. Entries after “also recorded” stand apart in the source; their conditions may differ.

Assays:
[1] = Oral dietary nitrogen (food) intake of intravenously infused rats; format: in vivo, rat (male Sprague-Dawley); details: in words
Protocol: (§1) Water was available ad libitum at all times.
(§2) The vein was then ligated dorsally to the catheter. […] Body weights were measured daily.
(§3) Infusate volume, oral food intake, body weight and urinary volume and total nitrogen were monitored daily for each rat. Infusate volume and food intake were determined by weighing the appropriate container at the start and end of each 24 hr. period. Measurements were recorded between 9 and 10 AM each day. At the end of the 7th day, rats were sacrificed, and blood and liver were harvested. Plasma was separated for measurement of free fatty acids, glucose, and ketone bodies. Liver was weighed and a sample was fixed in buffered formalin for gross histology.
(§4) The data were analyzed for significance by the one-way analysis of variance with repeated measures and comparing the effect of dietary treatment on each day. […] The null hypothesis was concluded invalid if p≤0.05. The analysis of variance was computed on a SAS statistical package.
(§5) This compound has an estimated energy density of 4.86 kcal/gram based on thermodynamic data from similar compounds.

[2] = Daily urinary nitrogen losses of intravenously infused rats; format: in vivo, rat (male Sprague-Dawley); details: for Urinary Nitrogen: Table 8, Example 4
Protocol: as §1, §2, §3
(§6) The data were analyzed for significance by the one-way analysis of variance with repeated measures and comparing the effect of dietary treatment on each day. […] The null hypothesis was concluded invalid if p≤0.05. The analysis of variance was computed on a SAS statistical package. […]

[3] = Nitrogen balance (difference between intake and urinary output); format: in vivo, rat (male Sprague-Dawley); details: for Nitrogen Balance, Difference Between Intake And Output: average of 9 rats
Protocol: as §1, §2, §3, §4
FIG. 3 illustrates the difference between oral intake and urinary nitrogen output which is termed nitrogen balance. It is representative of nitrogen balance because urinary nitrogen is the major route for body loss of nitrogen.
The experimental compound contains 8% nitrogen. With an infusion of 5.6 grams/day, infused nitrogen would provide approximately 450 mg more than that listed in the data tables. The final balance figures includes this number which is calculated based on the actual daily infusion rate for each rat.

[4] = Daily body weight of intravenously infused rats; format: in vivo, rat (male Sprague-Dawley); details: for Daily Body Weight: Table 10, Example 4
Protocol: as §1, §2, §3, §4, §5

[5] = Liver weight after 7 days of infusion; format: in vivo, rat (male Sprague-Dawley); details: Table 11, Example 4; for Liver/100 GM: as percentage of body weight; for Liver Wt.: end of day 7
Protocol: as §3, §6

[6] = Plasma free fatty acids, glucose and ketone bodies after 7 days of infusion; format: in vivo, rat (male Sprague-Dawley); details: for ACAC / BOHB / Glucose / Total FFA: Table 11, Example 4
Protocol: as §3, §4

[7] = Mortality and gross toxicity on intravenous infusion; details: in words; conclusion
Protocol: as §1, §2

[8] = Overall evaluation as a parenteral nutrient; format: in vivo, rat (male Sprague-Dawley); details: in words
Protocol: as §1, §2, §3, §4

[9] = Oral dietary nitrogen (food) intake of intravenously infused rats; format: in vivo, rat (male Sprague-Dawley); details: Table 7, Example 4, oral only

## CC(=O)CC(=O)NCC(O)CO (centres unmarked) [Compound 2, 1-acetoacetamido-2,3-propane diol]
[1]; Example 4
  appetite depression: did not depress the rats appetite
[1]; vs saline and other groups, 7 days
  differences in dietary nitrogen intake among the three groups: no differences in dietary nitrogen intake among the three groups
[2]; day 1, average of 9 rats
  Urinary Nitrogen: 477 mg
[2]; day 1, individual rat
  Urinary Nitrogen: 562.1 mg and 483.2 mg and 380.8 mg and 411.4 mg and 401.7 mg and 527.6 mg and 477.8 mg and 509.6 mg and 536.4 mg
[2]; day 2, average of 9 rats
  Urinary Nitrogen: 550 mg
[2]; day 2, individual rat
  Urinary Nitrogen: 661.5 mg and 542.5 mg and 499.8 mg and 464 mg and 462.84 mg and 583.3 mg and 486 mg and 528 mg and 718.2 mg
[2]; day 3, average of 9 rats
  Urinary Nitrogen: 576 mg
[2]; day 3, individual rat
  Urinary Nitrogen: 671.9 mg and 704.1 mg and 548.1 mg and 413.8 mg and 619.3 mg and 603.8 mg and 315.2 mg and 622.2 mg and 682.4 mg
[2]; day 4, average of 9 rats
  Urinary Nitrogen: 531 mg
[2]; day 4, individual rat
  Urinary Nitrogen: 559.8 mg and 477.4 mg and 468.3 mg and 385 mg and 499.7 mg and 603.7 mg and 494.3 mg and 614.8 mg and 674.2 mg
[2]; day 5, average of 9 rats
  Urinary Nitrogen: 479 mg
[2]; day 5, individual rat
  Urinary Nitrogen: 599 mg and 456 mg and 434.3 mg and 300.2 mg and 365.9 mg and 503.5 mg and 525.1 mg and 552.9 mg and 572.3 mg
[2]; day 6, average of 9 rats
  Urinary Nitrogen: 548 mg
[2]; day 6, individual rat
  Urinary Nitrogen: 569 mg and 659.4 mg and 440.8 mg and 286.1 mg and 545.2 mg and 538.5 mg and 608.2 mg and 599 mg and 686.7 mg
[2]; day 7, average of 9 rats
  Urinary Nitrogen: 567 mg
[2]; day 7, individual rat
  Urinary Nitrogen: 602 mg and 613.5 mg and 519.4 mg and 81.4 mg and 588.3 mg and 633.1 mg and 678 mg and 683.9 mg and 706.8 mg
[2]; in words, 7 days
  urinary nitrogen losses: reflects the greater nitrogen intake by rats infused with the experimental compound
[3]; Table 9, Example 4, infused nitrogen not considered, day 1
  Nitrogen Balance, Difference Between Intake And Output: -198 mg N
[3]; Table 9, Example 4, infused nitrogen not considered, day 2
  Nitrogen Balance, Difference Between Intake And Output: -173 mg N
[3]; Table 9, Example 4, infused nitrogen not considered, day 3
  Nitrogen Balance, Difference Between Intake And Output: -146 mg N
[3]; Table 9, Example 4, infused nitrogen not considered, day 4
  Nitrogen Balance, Difference Between Intake And Output: -142 mg N
[3]; Table 9, Example 4, infused nitrogen not considered, day 5
  Nitrogen Balance, Difference Between Intake And Output: -109 mg N
[3]; Table 9, Example 4, infused nitrogen not considered, day 6
  Nitrogen Balance, Difference Between Intake And Output: -114 mg N
[3]; Table 9, Example 4, infused nitrogen not considered, day 7
  Nitrogen Balance, Difference Between Intake And Output: -101 mg N
[3]; Table 9A, Example 4, infused nitrogen included, day 1
  Nitrogen Balance, Difference Between Intake And Output: 256 mg N
[3]; Table 9A, Example 4, infused nitrogen included, day 2
  Nitrogen Balance, Difference Between Intake And Output: 258 mg N
[3]; Table 9A, Example 4, infused nitrogen included, day 3
  Nitrogen Balance, Difference Between Intake And Output: 361 mg N
[3]; Table 9A, Example 4, infused nitrogen included, day 4
  Nitrogen Balance, Difference Between Intake And Output: 302 mg N
[3]; Table 9A, Example 4, infused nitrogen included, day 5
  Nitrogen Balance, Difference Between Intake And Output: 317 mg N
[3]; Table 9A, Example 4, infused nitrogen included, day 6
  Nitrogen Balance, Difference Between Intake And Output: 299 mg N
[3]; Table 9A, Example 4, infused nitrogen included, day 7
  Nitrogen Balance, Difference Between Intake And Output: 336 mg N
[3]; in words, 7 days
  nitrogen balance: negative nitrogen balance if nitrogen content of the compound is not considered
[4]; day 0, average of 9 rats
  Daily Body Weight: 244 Grams
[4]; day 0, individual rat
  Daily Body Weight: 247 Grams and 223 Grams and 252 Grams and 251 Grams and 259 Grams and 236 Grams and 243 Grams and 237 Grams
[4]; day 1, average of 9 rats
  Daily Body Weight: 234 Grams
[4]; day 1, individual rat
  Daily Body Weight: 243 Grams and 207 Grams and 240 Grams and 230 Grams and 244 Grams and 242 Grams and 227 Grams and 239 Grams and 237 Grams
[4]; day 2, average of 9 rats
  Daily Body Weight: 234 Grams
[4]; day 2, individual rat
  Daily Body Weight: 247 Grams and 205 Grams and 239 Grams and 227 Grams and 243 Grams and 230 Grams and 235 Grams and 237 Grams
[4]; day 3, average of 9 rats
  Daily Body Weight: 234 Grams
[4]; day 3, individual rat
  Daily Body Weight: 251 Grams and 204 Grams and 238 Grams and 223 Grams and 240 Grams and 243 Grams and 235 Grams and 233 Grams
[4]; day 4, average of 9 rats
  Daily Body Weight: 233 Grams
[4]; day 4, individual rat
  Daily Body Weight: 255 Grams and 199 Grams and 234 Grams and 208 Grams and 235 Grams and 233 Grams and 244 Grams
[4]; day 5, average of 9 rats
  Daily Body Weight: 236 Grams
[4]; day 5, individual rat
  Daily Body Weight: 253 Grams and 246 Grams and 234 Grams and 212 Grams and 230 Grams and 241 Grams and 236 Grams and 237 Grams
[4]; day 6, average of 9 rats
  Daily Body Weight: 235 Grams
[4]; day 6, individual rat
  Daily Body Weight: 251 Grams and 242 Grams and 233 Grams and 204 Grams and 243 Grams and 248 Grams and 232 Grams and 231 Grams
[4]; day 7, average of 9 rats
  Daily Body Weight: 228 Grams
[4]; day 7, individual rat
  Daily Body Weight: 250 Grams and 218 Grams and 232 Grams and 196 Grams and 237 Grams and 219 Grams and 236 Grams
[4]; in words, 7 days
  change in body weight: held relatively constant until the final day when they lose weight; also recorded: did not lose weight nor did they gain
[5]; average
  Liver/100 GM: 3.891
  Liver Wt.: 8.842
[5]; individual rat
  Liver/100 GM: 3.621 and 5.165 and 3.928 and 3.739 and 4.018 and 3.066 and 4.304 and 3.228 and 3.95
  Liver Wt.: 9.0537 and 11.2604 and 9.1128 and 7.3291 and 9.3228 and 7.2672 and 9.4265 and 7.4879 and 9.3213
[6]; plasma, average
  ACAC: 0.195 mmol/L
  BOHB: 0.897 mmol/L
  Glucose: 108.589 mg/dL
  Total FFA: 0.580 mmol/L
[6]; plasma, individual rat
  ACAC: 0.0958 mmol/L and 0.1231 mmol/L and 0.1385 mmol/L and 0.1032 mmol/L and 0.3378 mmol/L and 0.0999 mmol/L and 0.3415 mmol/L and 0.3225 mmol/L
  BOHB: 0.8481 mmol/L and 0.9004 mmol/L and 0.2501 mmol/L and 1.13 mmol/L and 0.8685 mmol/L and 1.3611 mmol/L and 0.5709 mmol/L and 1.163 mmol/L and 0.9826 mmol/L
  Glucose: 109.8 mg/dL and 105.2 mg/dL and 112.1 mg/dL and 111.4 mg/dL and 121 mg/dL and 91.1 mg/dL and 132.1 mg/dL and 114.6 mg/dL and 80 mg/dL
  Total FFA: 0.306 mmol/L and 0.472 mmol/L and 0.376 mmol/L and 1.408 mmol/L and 0.546 mmol/L and 0.651 mmol/L and 0.286 mmol/L and 0.676 mmol/L and 0.498 mmol/L
[6]; in words, end of day 7
  blood / plasma glucose: low blood glucose
[6]; in words, plasma, end of day 7
  ketone bodies: absence of elevated plasma acetoacetate; also recorded: neither of the ketone bodies were elevated when compared to the saline infused rats
[7]
  lethality: not acutely nor chronically lethal
[8]
  efficacy as parenteral nutrient / energy source: not a good source of energy
[8]; listed as 1-acetoacetamido-2,3-propane diol
  efficacy as parenteral nutrient / energy source: ineffective as parenteral nutrients
[9]; day 1, average of 9 rats
  Dietary Nitrogen Intake: 279 MG N
[9]; day 1, individual rat
  Dietary Nitrogen Intake: 513.24 MG N and 92.12 MG N and 164.5 MG N and 138.18 MG N and 171.08 MG N and 493.5 MG N and 440.86 MG N and 355.32 MG N
[9]; day 2, average of 9 rats
  Dietary Nitrogen Intake: 376 MG N
[9]; day 2, individual rat
  Dietary Nitrogen Intake: 532.98 MG N and 256.62 MG N and 526.4 MG N and 59.22 MG N and 282.94 MG N and 506.66 MG N and 263.2 MG N and 447.44 MG N
[9]; day 3, average of 9 rats
  Dietary Nitrogen Intake: 429 MG N
[9]; day 3, individual rat
  Dietary Nitrogen Intake: 532.98 MG N and 407.96 MG N and 546.14 MG N and 118.44 MG N and 506.66 MG N and 500.08 MG N and 210.56 MG N and 513.24 MG N and 526.4 MG N
[9]; day 4, average of 9 rats
  Dietary Nitrogen Intake: 388 MG N
[9]; day 4, individual rat
  Dietary Nitrogen Intake: 480.34 MG N and 263.2 MG N and 473.76 MG N and 65.8 MG N and 296.1 MG N and 519.82 MG N and 355.32 MG N
[9]; day 5, average of 9 rats
  Dietary Nitrogen Intake: 369 MG N
[9]; day 5, individual rat
  Dietary Nitrogen Intake: 480.34 MG N and 427.7 MG N and 355.32 MG N and 0 MG N and 52.64 MG N and 500.08 MG N and 519.82 MG N and 506.66 MG N
[9]; day 6, average of 9 rats
  Dietary Nitrogen Intake: 434 MG N
[9]; day 6, individual rat
  Dietary Nitrogen Intake: 526.4 MG N and 421.12 MG N and 388.22 MG N and 0 MG N and 519.82 MG N and 500.08 MG N and 513.24 MG N and 506.66 MG N
[9]; day 7, average of 9 rats
  Dietary Nitrogen Intake: 466 MG N
[9]; day 7, individual rat
  Dietary Nitrogen Intake: 526.4 MG N and 546.14 MG N and 506.66 MG N and 0 MG N and 532.98 MG N and 519.82 MG N
